Measured values taken from US10479780B2, “Aminopyrazole derivatives” (Chugai Seiyaku Kabushiki Kaisha, priority 2015, dated 2019).

Experiments:
Format in all cases: biochemical
human Lck enzyme = target: T1, human Lck enzyme (Homo sapiens, UniProt P06239); assay: Lck enzyme inhibitory activity (time-resolved fluorometry, biotinylated peptide phosphorylation); settings: read-out: LCK_IC50
T1 construct: purchased Carna Biosciences, Inc. 08-170
Method in brief: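 Readout pairs a europium cryptate-labelled anti-phosphotyrosine antibody with XL665-streptavidin, measured by time-resolved fluorescence. IC50 derived from percent inhibition against untreated controls.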

human Src enzyme = target: T2, human Src enzyme (Homo sapiens, UniProt P12931); assay: Src enzyme inhibitory activity (time-resolved fluorometry, biotinylated peptide phosphorylation); settings: read-out: SRC_IC50
T2 construct: purchased Carna Biosciences, Inc. 08-173
Method in brief: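 Compounds were tested for blocking tyrosine phosphorylation of a biotinylated peptide substrate by recombinant human Src. Phosphorylated product was quantified by time-resolved fluorometry using europium cryptate and XL665 conjugates, and IC50 was calculated against the compound-free control.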

human Yes1 enzyme = target: T3, human Yes1 enzyme (Homo sapiens, UniProt P07947); assay: Yes1 enzyme inhibitory activity (time-resolved fluorometry, biotinylated peptide phosphorylation); settings: read-out: YES_IC50
T3 construct: made in house
Method in brief: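 Inhibition was expressed against a compound-free control to give IC50, using TR-FRET read-out (Eu-cryptate anti-pTyr antibody, streptavidin-XL665).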

T1 sequence (P06239 whole entry): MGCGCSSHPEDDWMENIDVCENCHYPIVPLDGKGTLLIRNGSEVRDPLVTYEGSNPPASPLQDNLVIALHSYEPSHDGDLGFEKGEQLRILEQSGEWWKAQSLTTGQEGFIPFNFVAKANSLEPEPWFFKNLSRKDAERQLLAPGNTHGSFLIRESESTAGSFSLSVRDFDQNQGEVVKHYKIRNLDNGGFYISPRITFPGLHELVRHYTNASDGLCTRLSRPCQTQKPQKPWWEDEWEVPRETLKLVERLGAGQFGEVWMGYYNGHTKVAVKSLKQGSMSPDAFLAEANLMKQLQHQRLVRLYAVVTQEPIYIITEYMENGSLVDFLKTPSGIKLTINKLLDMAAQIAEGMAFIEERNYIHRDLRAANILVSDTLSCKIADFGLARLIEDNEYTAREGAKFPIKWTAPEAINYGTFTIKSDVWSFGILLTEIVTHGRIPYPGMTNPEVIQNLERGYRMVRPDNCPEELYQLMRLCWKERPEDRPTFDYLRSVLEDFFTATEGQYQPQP
T3 sequence (P07947 whole entry): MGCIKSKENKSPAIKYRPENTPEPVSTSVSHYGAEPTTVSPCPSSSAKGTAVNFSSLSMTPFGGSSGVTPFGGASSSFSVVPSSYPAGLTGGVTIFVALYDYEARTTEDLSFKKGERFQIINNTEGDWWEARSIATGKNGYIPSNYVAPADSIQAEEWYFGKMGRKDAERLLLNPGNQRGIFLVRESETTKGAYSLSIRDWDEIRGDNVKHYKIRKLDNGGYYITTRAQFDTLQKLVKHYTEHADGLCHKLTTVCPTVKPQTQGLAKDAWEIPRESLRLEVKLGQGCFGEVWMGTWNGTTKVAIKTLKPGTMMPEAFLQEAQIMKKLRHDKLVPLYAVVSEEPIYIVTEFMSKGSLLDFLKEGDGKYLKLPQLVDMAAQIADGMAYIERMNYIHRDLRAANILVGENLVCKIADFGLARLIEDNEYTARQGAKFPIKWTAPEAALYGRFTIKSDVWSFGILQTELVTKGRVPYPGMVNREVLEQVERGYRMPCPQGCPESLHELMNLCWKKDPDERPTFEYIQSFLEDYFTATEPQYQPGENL
T2 sequence (P12931 whole entry): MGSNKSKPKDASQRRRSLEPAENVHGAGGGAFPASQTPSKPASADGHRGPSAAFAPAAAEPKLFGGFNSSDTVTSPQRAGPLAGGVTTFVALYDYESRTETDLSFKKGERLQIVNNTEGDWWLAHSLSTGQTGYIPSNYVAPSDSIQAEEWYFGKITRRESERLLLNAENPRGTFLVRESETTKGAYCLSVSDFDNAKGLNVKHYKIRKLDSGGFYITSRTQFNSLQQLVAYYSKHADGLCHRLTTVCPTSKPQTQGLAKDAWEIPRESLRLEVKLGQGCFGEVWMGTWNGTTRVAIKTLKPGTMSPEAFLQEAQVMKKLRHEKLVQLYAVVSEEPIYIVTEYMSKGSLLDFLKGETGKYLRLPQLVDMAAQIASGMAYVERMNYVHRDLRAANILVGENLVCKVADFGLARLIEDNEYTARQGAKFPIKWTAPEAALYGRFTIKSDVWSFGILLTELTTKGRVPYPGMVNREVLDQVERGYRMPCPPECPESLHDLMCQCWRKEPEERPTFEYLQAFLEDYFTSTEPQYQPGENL

Compound | IC50 (human Lck enzyme) [nM] | IC50 (human Src enzyme) [nM] | IC50 (human Yes1 enzyme) [nM]
Cc1cc2cc(C(=O)c3cnn(-c4ccc(Oc5ccccc5F)cc4C)c3N)[nH]c2cc1N1C(=O)NC2(CCC2)C1=O [Example 5-1-371, 7-[2-[5-amino-1-[4-(2-fluorophenoxy)-2-methylphenyl]pyrazole-4-carbonyl]-5-methyl-1H-indol-6-yl]-5,7-diazaspiro[3.4]octane-6,8-dione] | 9.8 | 30 | 2
Cc1cc2cc(C(=O)c3cnn(-c4ccc(Oc5ccccc5F)cc4C)c3N)[nH]c2cc1N1C(=O)NC2(CC2)C1=O [Example 5-1-372, 6-[2-[5-amino-1-[4-(2-fluorophenoxy)-2-methylphenyl]pyrazole-4-carbonyl]-5-methyl-1H-indol-6-yl]-4,6-diazaspiro[2.4]heptane-5,7-dione] | 6.1 | 16 | 1.3
Cc1cc2cc(C(=O)c3cnn(-c4ccc(Oc5ccccc5F)cc4C)c3N)[nH]c2cc1N1C(=O)NC2(CCCC2)C1=O [Example 5-1-373, 3-[2-[5-amino-1-[4-(2-fluorophenoxy)-2-methylphenyl]pyrazole-4-carbonyl]-5-methyl-1H-indol-6-yl]-1,3-diazaspiro[4.4]nonane-2,4-dione] | 14 | 48 | 3.1
Cc1cc(Oc2ccccc2F)ccc1-n1ncc(C(=O)c2cc3cc(F)c(N4C(=O)NC5(CCC5)C4=O)cc3[nH]2)c1N [Example 5-1-374, 7-[2-[5-amino-1-[4-(2-fluorophenoxy)-2-methylphenyl]pyrazole-4-carbonyl]-5-fluoro-1H-indol-6-yl]-5,7-diazaspiro[3.4]octane-6,8-dione] | 13 | 36 | 2.9
Cc1cc(Oc2ccccc2F)ccc1-n1ncc(C(=O)c2cc3cc(F)c(N4C(=O)NC5(CC5)C4=O)cc3[nH]2)c1N [Example 5-1-375, 6-[2-[5-amino-1-[4-(2-fluorophenoxy)-2-methylphenyl]pyrazole-4-carbonyl]-5-fluoro-1H-indol-6-yl]-4,6-diazaspiro[2.4]heptane-5,7-dione] | 7.1 | 24 | 2
Cc1cc(Oc2ccccc2F)ccc1-n1ncc(C(=O)c2cc3cc(F)c(N4C(=O)NC5(COC5)C4=O)cc3[nH]2)c1N [Example 5-1-376, 7-[2-[5-amino-1-[4-(2-fluorophenoxy)-2-methylphenyl]pyrazole-4-carbonyl]-5-fluoro-1H-indol-6-yl]-2-oxa-5,7-diazaspiro[3.4] octane-6,8-dione] | 4 | 14 | 1.4
Cc1cc(Oc2ccccc2F)ncc1-n1ncc(C(=O)c2cc3cc(OCC(F)F)c(N4C(=O)NC(C)(C)C4=O)cc3[nH]2)c1N [Example 5-1-377, 3-[2-[5-amino-1-[6-(2-fluorophenoxy)-4-methylpyridin-3-yl]pyrazole-4-carbonyl]-5-(2,2-difluoroethoxy)-1H-indol-6-yl]-5,5-dimethylimidazolidine-2,4-dione] | 7.4 | 17 | 2
Cc1cc(Oc2ccccc2F)ncc1-n1ncc(C(=O)c2cc3cc(F)c(NS(=O)(=O)C4CCOCC4)cc3[nH]2)c1N [Example 5-1-378, N-[2-[5-amino-1-[6-(2-fluorophenoxy)-4-methylpyridin-3-yl]pyrazole-4-carbonyl]-5-fluoro-1H-indol-6-yl]oxane-4-sulfonamide] | 37 | 63 | 2.8
Cc1cc(Oc2ccccc2F)ncc1-n1ncc(C(=O)c2cc3cc(F)c(N4C(=O)NC(C)(C)C4=O)cc3[nH]2)c1N [Example 5-1-379, 3-[2-[5-amino-1-[6-(2-fluorophenoxy)-4-methylpyridin-3-yl]pyrazole-4-carbonyl]-5-fluoro-1H-indol-6-yl]-5,5-dimethylimidazolidine-2,4-dione] | 11 | 61 | 4.5

Next, values leading:

IC50 (human Lck enzyme) [nM] | IC50 (human Src enzyme) [nM] | IC50 (human Yes1 enzyme) [nM] | Compound
16 | 77 | 5.6 | Cc1cc2cc(C(=O)c3cnn(-c4cnc(Oc5c(F)cccc5F)cc4C)c3N)[nH]c2cc1N1C(=O)NC2(CCCC2)C1=O [Example 5-1-367, 3-[2-[5-amino-1-[6-(2,6-difluorophenoxy)-4-methylpyridin-3-yl]pyrazole-4-carbonyl]-5-methyl-1H-indol-6-yl]-1,3-diazaspiro[4.4] nonane-2,4-dione]
8.7 | 62 | 3.8 | Cc1cc(Oc2c(F)cccc2F)ncc1-n1ncc(C(=O)c2cc3cc(F)c(N4C(=O)NC5(CCOCC5)C4=O)cc3[nH]2)c1N [Example 5-1-368, 3-[2-[5-amino-1-[6-(2,6-difluorophenoxy)-4-methylpyridin-3-yl]pyrazole-4-carbonyl]-5-fluoro-1H-indol-6-yl]-8-oxa-1,3-diazaspiro[4.5] decane-2,4-dione]
79 | 560 | 22 | Cc1cc(Oc2c(F)cccc2F)ncc1-n1ncc(C(=O)c2cc3cc(F)c(N4C(=O)NC5(CCCCC5)C4=O)cc3[nH]2)c1N [Example 5-1-369, 3-[2-[5-amino-1-[6-(2,6-difluorophenoxy)-4-methylpyridin-3-yl]pyrazole-4-carbonyl]-5-fluoro-1H-indol-6-yl]-1,3-diazaspiro[4.5]decane-2,4-dione]
27 | 150 | 8.3 | Cc1cc(Oc2c(F)cccc2F)ncc1-n1ncc(C(=O)c2cc3cc(F)c(N4C(=O)NC(C)(C(F)(F)F)C4=O)cc3[nH]2)c1N (stereo not drawn) [Example 5-1-370, 3-[2-[5-amino-1-[6-(2,6-difluorophenoxy)-4-methylpyridin-3-yl]pyrazole-4-carbonyl]-5-fluoro-1H-indol-6-yl]-5-methyl-5-(trifluoromethyl)imidazolidine-2,4-dione]
110 | 95 | 6.3 | Cc1cc(Oc2c(F)cccc2F)ncc1-n1ncc(C(=O)c2cc3cc(OC(F)F)c(NS(=O)(=O)C4CCOCC4)cc3[nH]2)c1N [Example 5-1-380, N-[2-[5-amino-1-[6-(2,6-difluorophenoxy)-4-methylpyridin-3-yl]pyrazole-4-carbonyl]-5-(difluoromethoxy)-1H-indol-6-yl]oxane-4-sulfonamide]
43 | 56 | 3.3 | Cc1cc(Oc2c(F)cccc2F)ncc1-n1ncc(C(=O)c2cc3cc(F)c(NS(=O)(=O)C4CCOCC4)cc3[nH]2)c1N [Example 5-1-381, N-[2-[5-amino-1-[6-(2,6-difluorophenoxy)-4-methylpyridin-3-yl]pyrazole-4-carbonyl]-5-fluoro-1H-indol-6-yl]oxane-4-sulfonamide]
31 | 260 | 2.5 | Cc1cc(Oc2c(F)cccc2F)ncc1-n1ncc(C(=O)c2cc3cc(OCC(F)F)c(NS(=O)(=O)c4cccc(C#N)c4)cc3[nH]2)c1N [Example 5-1-382, N-[2-[5-amino-1-[6-(2,6-difluorophenoxy)-4-methylpyridin-3-yl]pyrazole-4-carbonyl]-5-(2,2-difluoroethoxy)-1H-indol-6-yl]-3-cyanobenzenesulfonamide]
270 | 630 | 9.2 | Cc1cc(Oc2c(F)cccc2F)ncc1-n1ncc(C(=O)c2cc3cc(OCC(F)F)c(NS(=O)(=O)c4cccc(Cl)c4)cc3[nH]2)c1N [Example 5-1-383, N-[2-[5-amino-1-[6-(2,6-difluorophenoxy)-4-methylpyridin-3-yl]pyrazole-4-carbonyl]-5-(2,2-difluoroethoxy)-1H-indol-6-yl]-3-chlorobenzenesulfonamide]
44 | 90 | 2.4 | Cc1cc(Oc2c(F)cccc2F)ncc1-n1ncc(C(=O)c2cc3cc(OCC(F)F)c(NS(=O)(=O)c4cccnc4)cc3[nH]2)c1N [Example 5-1-384, N-[2-[5-amino-1-[6-(2,6-difluorophenoxy)-4-methylpyridin-3-yl]pyrazole-4-carbonyl]-5-(2,2-difluoroethoxy)-1H-indol-6-yl]pyridine-3-sulfonamide]
390 | 2400 | 3 | Cc1cc(-n2ncc(C(=O)c3cc4cc(OC5CCN(C6CCCC6)CC5)c(-c5ccccc5C(F)(F)F)cc4[nH]3)c2N)ccc1Oc1ccccc1F [Example 5-1-385, (5-amino-1-(4-(2-fluorophenoxy)-3-methylphenyl)-1H-pyrazol-4-yl)(5-((1-cyclopentylpiperidin-4-yl)oxy)-6-(2-(trifluoromethyl)phenyl)-1H-indol-2-yl)methanone]
29 | 190 | 3.1 | Cc1cc(Oc2c(F)cccc2F)ncc1-n1ncc(C(=O)c2cc3cc(OC4CCN(C5CCCC5)CC4)c(-c4ccccc4C(F)(F)F)cc3[nH]2)c1N [Example 5-1-387, [5-amino-1-[6-(2,6-difluorophenoxy)-4-methylpyridin-3-yl]pyrazol-4-yl]-[5-(1-cyclopentylpiperidin-4-yl)oxy-6-[2-(trifluoromethyl)phenyl]-1H-indol-2-yl] methanone]
47 | 220 | 4.2 | Cc1cc(Oc2c(F)cccc2F)ncc1-n1ncc(C(=O)c2cc3cc(OC4CCN(C5CS(=O)(=O)C5)CC4)c(-c4ccccc4C(F)(F)F)cc3[nH]2)c1N [Example 5-1-388, [5-amino-1-[6-(2,6-difluorophenoxy)-4-methylpyridin-3-yl]pyrazol-4-yl]-[5-[1-(1,1-dioxothietan-3-yl)piperidin-4-yl]oxy-6-[2-(trifluoromethyl)phenyl]-1H-indol-2-yl] methanone]
